# Key:
# [1] = target: T1, Replicase polyprotein 1ab (Severe acute respiratory syndrome coronavirus 2, UniProt P0DTD1); assay: Inhibition of SARS CoV-2 Main protease using MCA-AVLQSGFR-Lys(DNP)-Lys-NH2 peptide as substrate by fluorescence based analysis
# [2] = target: T1, Replicase polyprotein 1ab; assay: Inhibition of SARS CoV-2 Main protease incubated for 10 min by FRET assay
# [3] = test system: SARS-CoV-2; type: functional, organism-based, Vero E6; details: Severe acute respiratory syndrome coronavirus 2, strain 107, Vero C1008
# [4] = Binding affinity to SARS CoV N-terminal his-tagged Main protease using Dabcyl-KTSAVLQSGFRKME-Edan peptide as substrate by fluorescence based analysis; design: species or system Severe acute respiratory syndrome-related coronavirus
# [5] = Inhibition of SARS CoV N-terminal his-tagged Main protease using Dabcyl-KTSAVLQSGFRKME-Edan peptide as substrate by fluorescence based analysis; design: species or system Severe acute respiratory syndrome-related coronavirus
# [6] = test system: SARS-CoV-2; type: functional, organism-based, Vero E6; details: Severe acute respiratory syndrome coronavirus 2, Vero C1008
# [7] = Cytotoxicity against human Huh-7 cells assessed as reduction of cell viability; type: toxicity, cell-based
# [8] = Cytotoxicity against cat CRFK cells assessed as reduction of cell viability; type: toxicity, cell-based, Felis catus
# [9] = Cytotoxicity against mouse L929 cells assessed as reduction of cell viability; type: toxicity, cell-based
structure (smiles),measurement,setting,value
O=c1c2ccccc2sn1CCCCc1ccccc1,IC50,[1],410 nM
Cn1sc2ccccc2c1=O,IC50,[1],780 nM
CC1(C)[C@@H]2[C@@H](C(=O)N[C@H](C=O)C[C@@H]3CCNC3=O)N(C(=O)COc3ccc(Br)c(Cl)c3)C[C@@H]21,IC50,[2],50.8 nM
O=C[C@H](C[C@@H]1CCNC1=O)NC(=O)[C@@H]1[C@H]2CCC[C@H]2CN1C(=O)COc1ccc(Cl)cc1F,IC50,[2],34.7 nM
same,EC50,[3],1650 nM
COc1ccc(OC(C)C(=O)N2C[C@@H]3CCC[C@@H]3[C@H]2C(=O)N[C@H](C=O)C[C@@H]2CCNC2=O)cc1 (some centres not stated),IC50,[2],69.1 nM
O=C(On1nnc2ccccc21)c1cc2cc(F)ccc2[nH]1,Ki,[4],13.8 nM
CC1(C)[C@@H]2[C@@H](C(=O)N[C@H](C=O)C[C@@H]3CCNC3=O)N(C(=O)c3ccc4ccccc4c3)C[C@@H]21,IC50,[2],453 nM
O=C(NCc1ccco1)c1ccc(-n2sc3ccccc3c2=O)cc1,IC50,[1],380 nM
CC1(C)[C@@H]2[C@@H](C(=O)N[C@H](C=O)C[C@@H]3CCNC3=O)N(C(=O)CCc3cccc(F)c3)C[C@@H]21,IC50,[2],16.5 nM
same,EC50,[3],2230 nM
O=c1c2ccccc2sn1-c1ccc(Cl)cc1,IC50,[1],390 nM
CC(C)[C@H](NC(=O)[C@H](C)NC(=O)OCc1ccccc1)C(=O)N[C@@H](Cc1c[nH]c2ccccc12)[C@@H](O)[C@H](O)[C@@H](Cc1c[nH]c2ccccc12)NC(=O)[C@@H](NC(=O)[C@H](C)NC(=O)OCc1ccccc1)C(C)C,Ki,[5],73 nM
O=C[C@H](C[C@@H]1CCNC1=O)NC(=O)[C@H](Cc1ccccc1)NC(=O)/C=C/c1cccc(Br)c1,IC50,[6],700 nM
CCN(CC)c1ccc(C(=O)On2nnc3ccccc32)cc1,Ki,[4],11.1 nM
CCCC1CCC(OC(=O)N[C@@H](CC(C)C)C(=O)N[C@H](C=O)C[C@@H]2CCNC2=O)CC1 (some centres not stated),CC50,[7],> 100000 nM
same,CC50,[8],> 100000 nM
same,CC50,[9],> 100000 nM
O=C(O)CCn1[se]c2ccccc2c1=O,IC50,[1],350 nM
O=c1c2ccccc2sn1-c1ccccc1,IC50,[1],490 nM
CC(C)C[C@H](NC(=O)OCc1ccccc1)C(=O)N[C@H](C=O)C[C@@H]1CCNC1=O,IC50,[6],70 nM
same,CC50,[8],> 100000 nM
same,CC50,[9],> 100000 nM
CC1(C)[C@@H]2[C@@H](C(=O)N[C@H](C=O)C[C@@H]3CCNC3=O)N(C(=O)COc3ccc(Cl)cc3)C[C@@H]21,IC50,[2],19 nM
same,EC50,[3],530 nM
CC1(C)[C@@H]2[C@@H](C(=O)N[C@H](C=O)C[C@@H]3CCNC3=O)N(C(=O)COc3ccc4ccccc4c3)C[C@@H]21,IC50,[2],52.1 nM
O=c1c2ccccc2[se]n1CCO,IC50,[1],650 nM
O=c1c2ccccc2[se]n1-c1cccc([N+](=O)[O-])c1,IC50,[1],150 nM
CCCCC1CCC(OC(=O)N[C@@H](CC(C)C)C(=O)N[C@H](C=O)C[C@@H]2CCNC2=O)CC1 (some centres not stated),IC50,[6],900 nM
same,CC50,[7],63300 nM
same,CC50,[8],63300 nM
same,CC50,[9],63300 nM
CCCC1CCC(OC(=O)N[C@@H](CC(C)C)C(=O)N[C@@H](C[C@@H]2CCNC2=O)C(O)S(=O)(=O)O)CC1 (some centres not stated),CC50,[7],> 100000 nM
same,CC50,[8],> 100000 nM
same,CC50,[9],> 100000 nM
CC(C)Cn1sc2ccccc2c1=O,IC50,[1],480 nM
CC1(C)[C@@H]2[C@@H](C(=O)N[C@H](C=O)C[C@@H]3CCNC3=O)N(C(=O)COc3cc(F)cc(F)c3)C[C@@H]21,IC50,[2],18.5 nM
same,EC50,[3],1640 nM
CC(C)C[C@H](NC(=O)OC1CCCCC1)C(=O)N[C@H](C=O)C[C@@H]1CCNC1=O,IC50,[6],3900 nM
same,CC50,[7],> 100000 nM
same,CC50,[8],> 100000 nM
same,CC50,[9],> 100000 nM
Cc1cc(Cl)ccc1OCC(=O)N1C[C@@H]2CCC[C@@H]2[C@H]1C(=O)N[C@H](C=O)C[C@@H]1CCNC1=O,IC50,[2],19.7 nM
same,EC50,[3],1500 nM
CN(C)c1ccc(CCC(=O)N2C[C@@H]3CCC[C@@H]3[C@H]2C(=O)N[C@H](C=O)C[C@@H]2CCNC2=O)cc1,IC50,[2],378 nM
CC1(C)[C@@H]2[C@@H](C(=O)N[C@H](C=O)C[C@@H]3CCNC3=O)N(C(=O)COc3ccc(F)c(F)c3)C[C@@H]21,IC50,[2],13.2 nM
same,EC50,[3],5570 nM
O=C(O)Cn1[se]c2ccccc2c1=O,IC50,[1],410 nM
CC(C)C[C@H](NC(=O)OCC1CCC(F)(F)CC1)C(=O)N[C@H](C=O)C[C@@H]1CCNC1=O,CC50,[7],> 100000 nM
same,CC50,[8],> 100000 nM
same,CC50,[9],> 100000 nM
CN(C)c1ccc(C(=O)On2nnc3ccccc32)cc1,Ki,[4],17.4 nM
CC1(C)[C@@H]2[C@@H](C(=O)N[C@H](C=O)C[C@@H]3CCNC3=O)N(C(=O)COc3ccc(Cl)c(Cl)c3)C[C@@H]21,IC50,[2],12.4 nM
same,EC50,[3],2080 nM
O=c1c2ccccc2sn1CCO,IC50,[1],410 nM
COc1ccc(/C=C/C(=O)N2C[C@@H]3CCC[C@@H]3[C@H]2C(=O)N[C@H](C=O)C[C@@H]2CCNC2=O)c(OC)c1,IC50,[2],196 nM
Cc1ccc(-n2sc3ccccc3c2=O)cc1,IC50,[1],330 nM
CNc1ccc(C(=O)On2nnc3ccccc32)cc1,Ki,[4],12.1 nM
O=C[C@H](C[C@@H]1CCNC1=O)NC(=O)[C@@H]1[C@H]2CCC[C@H]2CN1C(=O)c1cc2ccccn2n1,IC50,[2],299 nM
COC(=O)c1ccc(-n2sc3ccccc3c2=O)cc1,IC50,[1],360 nM
O=C[C@H](C[C@@H]1CCNC1=O)NC(=O)[C@H](Cc1ccccc1)NC(=O)/C=C/c1ccc(Cl)cc1F,IC50,[6],200 nM
CC1(C)[C@@H]2[C@@H](C(=O)N[C@H](C=O)C[C@@H]3CCNC3=O)N(C(=O)COc3cccc(C(F)(F)F)c3)C[C@@H]21,IC50,[2],43.3 nM
same,EC50,[3],17000 nM
O=c1[nH]sc2ccccc12,IC50,[1],660 nM
CCCn1sc2ccccc2c1=O,IC50,[1],730 nM
O=C(On1nnc2ccccc21)c1ccc2[nH]cnc2c1,Ki,[4],22.9 nM
Nc1ccccc1C(=O)On1nnc2ccccc21,Ki,[4],19.5 nM
O=c1c2ccccc2sn1Cc1ccccc1,IC50,[1],170 nM
O=C[C@H](C[C@@H]1CCNC1=O)NC(=O)[C@@H]1[C@H]2CCC[C@H]2CN1C(=O)/C=C/c1ccccc1,IC50,[2],526 nM
Cc1cc(-c2ccc(N/N=C3\C=Cc4c(S(=O)(=O)O)cc(S(=O)(=O)O)c(N)c4C3=O)c(C)c2)ccc1N/N=C1\C=Cc2c(S(=O)(=O)O)cc(S(=O)(=O)O)c(N)c2C1=O,IC50,[5],200 nM
same,Ki,[5],73 nM
COc1ccc(OCC(=O)N2C[C@@H]3CCC[C@@H]3[C@H]2C(=O)N[C@H](C=O)C[C@@H]2CCNC2=O)cc1,IC50,[2],36.2 nM
same,EC50,[3],24700 nM
CC(C)C[C@H](NC(=O)/C=C/c1ccccc1)C(=O)N[C@H](C=O)C[C@@H]1CCNC1=O,IC50,[6],830 nM
O=C(On1nnc2ccccc21)c1cc2ccccc2[nH]1,Ki,[4],12.3 nM
Nc1ccccc1-n1sc2ccccc2c1=O,IC50,[1],130 nM
CN(C)c1ccc(/C=C/C(=O)N[C@@H](Cc2ccccc2)C(=O)N[C@H](C=O)C[C@@H]2CCNC2=O)cc1,IC50,[6],500 nM
O=C[C@H](C[C@@H]1CCNC1=O)NC(=O)[C@@H]1[C@H]2CCC[C@H]2CN1C(=O)COc1ccc2c(c1)OCCO2,IC50,[2],93.5 nM
O=C(Oc1ccc(S(=O)(=O)c2ccc(OC(=O)C(Cl)=C(Cl)Cl)cc2)cc1)C(Cl)=C(Cl)Cl,IC50,[5],900 nM
CCCNC(=O)c1ccc(-n2sc3ccccc3c2=O)cc1,IC50,[1],230 nM
O=C(O)c1ccc(-n2[se]c3ccccc3c2=O)cc1,IC50,[1],130 nM
C=CCn1sc2ccccc2c1=O,IC50,[1],630 nM
COc1ccc(OCC(=O)N2C[C@H]3[C@@H]([C@H]2C(=O)N[C@H](C=O)C[C@@H]2CCNC2=O)C3(C)C)cc1F,IC50,[2],37.2 nM
same,EC50,[3],4680 nM
O=C[C@H](C[C@@H]1CCNC1=O)NC(=O)[C@@H]1[C@H]2CCC[C@H]2CN1C(=O)c1cc2ccccc2[nH]1,IC50,[2],153 nM
COc1ccc(OCC(=O)N2C[C@H]3[C@@H]([C@H]2C(=O)N[C@H](C=O)C[C@@H]2CCNC2=O)C3(C)C)cc1OC,IC50,[2],14.5 nM
same,EC50,[3],1730 nM
O=C[C@H](C[C@@H]1CCNC1=O)NC(=O)[C@@H]1[C@H]2CCC[C@H]2CN1C(=O)c1cccnc1,IC50,[2],748 nM
CC1(C)[C@@H]2[C@@H](C(=O)N[C@H](C=O)C[C@@H]3CCNC3=O)N(C(=O)COc3ccc(Br)cc3Cl)C[C@@H]21,IC50,[2],13.3 nM
same,EC50,[3],1180 nM
O=C[C@H](C[C@@H]1CCNC1=O)NC(=O)[C@@H]1[C@H]2CCC[C@H]2CN1C(=O)COc1ccc(Cl)c(Cl)c1,IC50,[2],30 nM
same,EC50,[3],830 nM
CC1(C)[C@@H]2[C@@H](C(=O)N[C@H](C=O)C[C@@H]3CCNC3=O)N(C(=O)COc3ccc(Cl)cc3Cl)C[C@@H]21,IC50,[2],13 nM
same,EC50,[3],660 nM
O=C[C@H](C[C@@H]1CCNC1=O)NC(=O)[C@@H]1[C@H]2CCC[C@H]2CN1C(=O)CCc1cccc(F)c1,EC50,[3],2970 nM
CN(C)c1ccc(/C=C/C(=O)N2C[C@@H]3CCC[C@@H]3[C@H]2C(=O)N[C@H](C=O)C[C@@H]2CCNC2=O)cc1,IC50,[2],375 nM
O=C[C@H](C[C@@H]1CCNC1=O)NC(=O)[C@@H]1[C@H]2CCC[C@H]2CN1C(=O)COc1ccc(Cl)cc1,EC50,[3],670 nM
O=C[C@H](C[C@@H]1CCNC1=O)NC(=O)[C@@H]1[C@H]2CCC[C@H]2CN1C(=O)CCc1ccc(F)c(F)c1,IC50,[2],17.4 nM
same,EC50,[3],30500 nM
CC(C)[C@H](NC(=O)[C@H](C)NC(=O)OCc1ccccc1)C(=O)N[C@@H](Cc1ccccc1)[C@@H](O)[C@H](O)[C@H](Cc1ccccc1)NC(=O)[C@@H](NC(=O)[C@H](C)NC(=O)OCc1ccccc1)C(C)C,Ki,[5],600 nM
O=C[C@H](C[C@@H]1CCNC1=O)NC(=O)[C@@H]1[C@H]2CCC[C@H]2CN1C(=O)CCc1cc(F)cc(F)c1,EC50,[3],5630 nM
CCCCNC(=O)c1ccc(-n2sc3ccccc3c2=O)cc1,IC50,[1],910 nM
O=c1c2ccccc2[se]n1CCN1CCOCC1,IC50,[1],240 nM
CC(C)(C)OC(=O)NCn1[se]c2ccccc2c1=O,IC50,[1],330 nM
O=c1c2ccccc2sn1Cc1ccco1,IC50,[1],110 nM
same,Ki,[1],78 nM

# Source: ChEMBL document CHEMBL5244279, “Perspectives on SARS-CoV-2 Main Protease Inhibitors” (J Med Chem, 2021)
